Data: article PMC12703733, “Probing Guanidino Pendant or Bridged Groups in Cyclic Antimicrobial Peptides Derived from Temporin L: A Strategy to Improve Efficacy against Gram-Negative Bacteria” (Journal of Medicinal Chemistry, 2025)
Converted amounts (≈) assume the structure as drawn. Bridge positions count the residues as written; N and C are the ends. Square brackets hold non-standard residues; d marks the D form. Peptide text beside a SMILES is read from it. * marks the point of attachment. Phe(4-guanidino) = N=C(N)Nc1ccc(C[C@H](N)C(=O)O)cc1; Butanoyl(4-guanidino) = N=C(N)NCCCC(=O)*

Tests used:
circular dichroism = details: water; pH ns; 25 °C; 150 uM
A. baumannii ATCC 19606 = experiment: microbe, parasite or virus in culture; type: cell-based; details: ATCC 19606
Experimental: (§1) Bacterial strains used in this study were the Gram-positive S. aureus ATCC 25923, S. epidermidis ATCC 12228, B. megaterium BM11, S. [NT] 27591, E. faecalis ATCC 29212 and the Gram-negative E. coli ATCC 25922, P. aeruginosa ATCC 27853, A. baumannii ATCC 19606, E. coli D21 and P. aeruginosa PAO1. […] Bacterial cells in the mid log phase were diluted in Muller Hinton (MH) at a concentration of 2 × 10^6 cell/mL. […] Ciprofloxacin was used as antibiotic control. The plate was then incubated at 37 °C. MICs were obtained from three identical readings of four independent experiments.

B. megaterium BM11 = experiment: microbe, parasite or virus in culture; type: cell-based; details: BM11
Experimental: as §1

E. coli ATCC 25922 = experiment: microbe, parasite or virus in culture; type: cell-based; details: ATCC 25922
Experimental: as §1

E. coli D21 = experiment: microbe, parasite or virus in culture; type: cell-based; details: D21
Experimental: as §1

E. faecalis ATCC 29212 = experiment: microbe, parasite or virus in culture; type: cell-based; details: ATCC 29212
Experimental: as §1

P. aeruginosa ATCC 27853 = experiment: microbe, parasite or virus in culture; type: cell-based; details: ATCC 27853
Experimental: as §1

P. aeruginosa PAO1 = experiment: microbe, parasite or virus in culture; type: cell-based; details: PAO1
Experimental: as §1

S. agalactiae ATCC 27591 = experiment: microbe, parasite or virus in culture; type: cell-based; details: ATCC 27591
Experimental: as §1

S. aureus ATCC 25923 = experiment: microbe, parasite or virus in culture; type: cell-based; details: ATCC 25923
Experimental: as §1

[1] = system: S. epidermidis ATCC 12228; experiment: microbe, parasite or virus in culture; type: cell-based; details: ATCC 12228
Experimental: as §1

[2] = type: cell-based, human; details: human; for viability at 2 h, 3.12 µM / viability at 2 h, 6.25 µM / viability at 2 h, 12.5 µM / viability at 2 h, 25 µM / viability at 2 h, 50 µM / viability at 2 h, 100 µM / viability at 24 h, 3.12 µM / viability at 24 h, 6.25 µM / viability at 24 h, 12.5 µM / viability at 24 h, 25 µM / viability at 24 h, 50 µM / viability at 24 h, 100 µM: Cell viability (%)
Experimental: (§2) For the evaluation of peptides’ cytotoxicity, the human immortalized keratinocytes (HaCaT cells), purchased from AddexBio (San Diego, CA, USA), and BEAS-2B were used. HaCaT cells were cultured in Dulbecco’s modified Eagle’s medium supplemented with 4 mM glutamine (DMEM), 10% heat-inactivated fetal bovine serum (FBS), and 0.1 mg/mL of penicillin and streptomycin, at 37 °C and 5% CO2. BEAS-2B cells were cultured in RPMI, supplemented with 2 mM glutamine (DMEM), 10% heat-inactivated fetal bovine serum (FBS), 1 mM sodium pyruvate, and 0.1 mg/mL of penicillin and streptomycin, at 37 °C and 5% CO2. Cytotoxicity was tested in vitro using a colorimetric assay that relies on the intracellular reduction of the yellow 3-(4,5-dimethylthiazol-2-yl)-2,5-diphenyltetrazolium bromide salt (MTT) by mitochondrial dehydrogenases of metabolically active cells in formazan crystals (purple). About 4 × 10^4 HaCaT and BEAS-2B cells, suspended in DMEM supplemented with 2% FBS, were plated in triplicate wells of a 96-well microtiter plate. The plate was incubated overnight at 37 °C and 5% CO2. Then, the cells were treated with different concentrations of the peptide (from 100 to 3.12 μM) in a fresh serum-free medium for 2 h and for a longer time (24 h). Following peptide treatment, the medium was removed, and MTT (0.5 mg/mL) solution in Hank’s buffer (136 mM NaCl, 4.2 mM Na2HPO4, 4.4 mM KH2PO4, 5.4 mM KCl, 4.1 mM NaHCO3, pH 7.2, supplemented with 20 mM D-glucose) was added to each well of the plate, that was then incubated for 4 h at 37 °C and 5% CO2. The purple formazan crystals were dissolved using acidified 2-propanol and a microplate reader (Infinite M200; Tecan, Salzburg, Austria) was used to measure the absorbance of each well at 570 nm. The percentage of cell viability was calculated compared to the control, which consisted of cells without any peptide treatment (corresponding to 100% viability) and all data represent the mean of three independent experiments ± SEM.

[3] = system: human keratinocytes (HaCaT cells); type: cell-based
Experimental: as §2

SMILES	helicity (circular dichroism) [%]	MIC (A. baumannii ATCC 19606) [µM]	MIC (B. megaterium BM11) [µM]	MIC (E. coli ATCC 25922) [µM]	MIC (E. coli D21) [µM]	MIC (E. faecalis ATCC 29212) [µM]	MIC (P. aeruginosa ATCC 27853) [µM]	MIC (P. aeruginosa PAO1) [µM]	MIC (S. agalactiae ATCC 27591) [µM]	MIC (S. aureus ATCC 25923) [µM]	MIC [1] [µM]	viability at 2 h, 6.25 µM [2] [%]	viability at 2 h, 12.5 µM [2] [%]	viability at 2 h, 25 µM [2] [%]	viability at 2 h, 50 µM [2] [%]	viability at 2 h, 100 µM [2] [%]	viability at 24 h, 3.12 µM [2] [%]	viability at 24 h, 6.25 µM [2] [%]	viability at 24 h, 12.5 µM [2] [%]	viability at 24 h, 25 µM [2] [%]	further results
CC[C@H](C)[C@H](NC(=O)[C@H](CCCNC(=N)N)NC(=O)[C@H]1CCC(=O)NCCCC[C@H](NC(=O)[C@H](Cc2ccccc2)NC(=O)[C@H](Cc2c[nH]c3ccccc23)NC(=O)[C@@H]2CCCN2C(=O)[C@@H](NC(=O)[C@H](Cc2ccccc2)NC(=O)CCCNC(=N)N)C(C)C)C(=O)N[C@@H](CCCCN)C(=O)N[C@@H](Cc2ccccc2)C(=O)N[C@H](CC(C)C)C(=O)N1)C(=O)N[C@@H](CC(C)C)C(N)=O [Peptide 5, guanidino-GABA-FVPWF[KKFle]RIL] ({Butanoyl(4-guanidino)}-FVPWFKKF[dL][dE]RIL-NH2; lactam 6-10)	16	3.12 (≈ 5.71 µg/mL)	0.78 (≈ 1.43 µg/mL)	6.25 (≈ 11.4 µg/mL)	6.25 (≈ 11.4 µg/mL)	6.25 (≈ 11.4 µg/mL)	50 (≈ 91.6 µg/mL)	25 (≈ 45.8 µg/mL)	1.56 (≈ 2.86 µg/mL)	3.12 (≈ 5.71 µg/mL)	3.12 (≈ 5.71 µg/mL)	126	128	76	18	4	116 ± 7	137 ± 15	147 ± 15	58 ± 6	CC50 at 24 h [2]: 24.6 µM; viability at 2 h, 3.12 µM [2]: 128%; viability at 24 h, 50 µM [2]: 1 ± 1%; viability at 24 h, 100 µM [2]: 1 ± 1%
CC[C@H](C)[C@H](NC(=O)[C@H](CCCNC(=N)N)NC(=O)[C@H]1CCC(=O)NCCCC[C@H](NC(=O)[C@H](Cc2ccc(NC(=N)N)cc2)NC(=O)[C@H](Cc2c[nH]c3ccccc23)NC(=O)[C@@H]2CCCN2C(=O)[C@@H](NC(=O)[C@@H](N)Cc2ccccc2)C(C)C)C(=O)N[C@@H](CCCCN)C(=O)N[C@@H](Cc2ccccc2)C(=O)N[C@H](CC(C)C)C(=O)N1)C(=O)N[C@@H](CC(C)C)C(N)=O [Peptide 8, FVPW(p-guanidino)F[KKFle]RIL] (H-FVPW[Phe(4-guanidino)]KKF[dL][dE]RIL-NH2; lactam 6-10)	7	6.25 (≈ 11 µg/mL)	0.78 (≈ 1.37 µg/mL)	12.5 (≈ 22 µg/mL)	6.25 (≈ 11 µg/mL)	25 (≈ 44 µg/mL)	50 (≈ 88.1 µg/mL)	25 (≈ 44 µg/mL)	3.12 (≈ 5.49 µg/mL)	25 (≈ 44 µg/mL)	6.25 (≈ 11 µg/mL)	112	115	110	92	63	101 ± 4	105 ± 6	110 ± 3	124 ± 1	viability at 2 h, 3.12 µM [2]: 111%; viability at 24 h, 100 µM [2]: 58 ± 9%
CC[C@H](C)[C@H](NC(=O)[C@H](CCCNC(=N)N)NC(=O)[C@H]1CCC(=O)NCCCC[C@H](NC(=O)[C@H](Cc2ccccc2)NC(=O)[C@H](Cc2c[nH]c3ccccc23)NC(=O)[C@@H]2CCCN2C(=O)[C@@H](NC(=O)[C@@H](N)Cc2ccccc2)C(C)C)C(=O)N[C@@H](CCCCN)C(=O)N[C@@H](Cc2ccc(NC(=N)N)cc2)C(=O)N[C@H](CC(C)C)C(=O)N1)C(=O)N[C@@H](CC(C)C)C(N)=O [Peptide 10, FVPWF[KK(p-guanidino)Fle]RIL] (H-FVPWFKK[Phe(4-guanidino)][dL][dE]RIL-NH2; lactam 6-10)	3	6.25 (≈ 11 µg/mL)	0.78 (≈ 1.37 µg/mL)	6.25 (≈ 11 µg/mL)	6.25 (≈ 11 µg/mL)	50 (≈ 88.1 µg/mL)	50 (≈ 88.1 µg/mL)	25 (≈ 44 µg/mL)	6.25 (≈ 11 µg/mL)	100 (≈ 176 µg/mL)	12.5 (≈ 22 µg/mL)	110	112	112	101	82	98 ± 3	104 ± 2	103 ± 3	106 ± 3	viability at 2 h, 3.12 µM [2]: 105%; viability at 24 h, 50 µM [2]: 116 ± 5%; viability at 24 h, 100 µM [2]: 95 ± 6%
CC[C@H](C)[C@H](NC(=O)[C@H](CCCNC(=N)N)NC(=O)[C@@H]1CCCCNC(=N)NCCCC[C@H](NC(=O)[C@H](Cc2ccccc2)NC(=O)[C@H](Cc2c[nH]c3ccccc23)NC(=O)[C@@H]2CCCN2C(=O)[C@@H](NC(=O)[C@@H](N)Cc2ccccc2)C(C)C)C(=O)N[C@@H](CCCCN)C(=O)N[C@@H](Cc2ccccc2)C(=O)N[C@H](CC(C)C)C(=O)N1)C(=O)N[C@@H](CC(C)C)C(N)=O [Peptide 11, FVPWF{KKFlK}RIL]	76	1.56 (≈ 2.72 µg/mL)	1.56 (≈ 2.72 µg/mL)	6.25 (≈ 10.9 µg/mL)	12.5 (≈ 21.8 µg/mL)	12.5 (≈ 21.8 µg/mL)	50 (≈ 87.3 µg/mL)	50 (≈ 87.3 µg/mL)	3.12 (≈ 5.45 µg/mL)	3.12 (≈ 5.45 µg/mL)	1.56 (≈ 2.72 µg/mL)	98	86	57	35	10	98 ± 4	97 ± 3	87 ± 3	35 ± 3	CC50 at 24 h [2]: 21.3 µM; viability at 24 h, 50 µM [2]: 5 ± 3%; viability at 24 h, 100 µM [2]: 2 ± 1%; cytotoxicity (in words) [3]: Low cytotoxicity (up to 25 μM)
